Our source for the IC50 and melting point values is US20130178472A1, “ARYLSULFONAMIDE PYRIDINE-PYRIDINONE DERIVATIVES, PREPARATION OF SAME, AND THERAPEUTIC USE THEREOF” (SANOFI, priority 2010, published 2013).

The structures appear in SMILES notation.

Data set [1] has as its target T1, active mutant recombinant S6K1 (1-421, T412E) (Homo sapiens, UniProt P23443, T412E).
T1 construct: S6K1 (1-421, T412E); purchased Upstate USA, Inc. Charlottesville Va; 14-333
Kind of data set: Inhibition of p70S6 kinase activity: phosphorylation of S6 peptide substrate, [γ-33]ATP filter assay. The following applies: peptide AKRRRLSSLRA 50 μM, ATP 100 μM, 20 minutes at 30° C.; read-out: IC50, concentration which inhibits 50% of the phosphorylation of the peptide substrate derived from the S6 ribosomal protein. It is filed as biochemical. The text has this:
(§1) The inhibitory activity on the PDGF receptor kinases is given by the concentration which inhibits 50% of the proliferation activity of Baf3 tel/PDGF cells respectively. The inhibitory activity on p70S6 kinase is given by the concentration which inhibits 50% of the phosphorylation of the peptide substrate derived from the S6 ribosomal protein (AKRRRLSSLRA, Upstate).
Measurement of the inhibition of the p70S6 kinase activity:
The active mutant recombinant S6K1 (1-421, T412E) (ref. 14-333, Upstate USA, Inc. Charlottesville Va.) (specific activity 298 U/mg) is incubated (20 mU/10 μl) with 8 concentrations of inhibitors solubilized at 1 mM in DMSO in the presence of the peptide substrate obtained from the S6 ribosomal protein (AKRRRLSSLRA, Upstate) (50 μM final) and of a cold ATP mixture (100 μM) and 1 μCi/well of [γ-33]ATP (NEN, Courtaboeuf, France). The enzyme reaction is carried out in a final volume of 50 μl in a 96-well filter plate (MultiScreen TM-PH opaque plate with Phospho-Cellulose cat # MAPHNOB, Millipore) previously soaked with 100 μl 1M Tris buffer pH 7.4 by adding the reagents of the S6 Kinase Assay kit (#17-136, Upstate) in the following order:
10 μl of 5% DMSO or various inhibitors at a 5× concentration
30 μl of reaction mixture containing the ADBI buffer (#20-108 Upstate, composed of 20 mM MOPS pH 7.2, 25 mM beta-glycerol phosphate, 5 mM EGTA, 1 mM sodium orthovanadate, 1 mM dithiothreitol), S6K1 (20 mU) and 250 μM peptide substrate [AKRRRLSSLRA] in ADBI buffer (#20-122, Upstate). The reaction is started by adding 10 μl of cold ATP/^33γATP mixture (1 μCi/50 μl as 500 μM ATP in ADBI buffer, 75 mM MgCl2) and then incubated for 20 minutes at 30° C. before being stopped by adding 20 μl of 7.5% phosphoric acid. The reaction mixture is filtered by aspiration under vacuum (Vacuum manifold, Millipore), the wells are rinsed twice with 200 μl of 7.5% phosphoric acid (2 minutes) and then twice with 200 μl of distilled H2O (2 minutes). After drying the plate, 25 μl/well of scintillant (Optiphase Super Mix, Wallac) are added and the radioactivity is detected with the Micro-Beta scintillation reader (Wallac). A negative control (all the reagents without peptide substrate) is prepared in order to determine the nonspecific binding of ^33γATP to the phosphocellulose filter which is subtracted from the experimental results.
It is thus apparent that the compounds of the invention have an inhibitory activity on the p70S6 kinase activity. This activity is given by the concentration which inhibits 50% of the phosphorylation of the peptide substrate derived from the S6 ribosomal protein (AKRRRLSSLRA, Upstate).

Data set [2] concerns the target T2, fusion protein Tel/PDGF-R beta (BaF3 Tel/PDGF cells) (Homo sapiens, UniProt P09619).
T2 construct: the transmembrane and intracellular part of the PDGF-R beta receptor; N-terminal part of transcription factor Tel (ETV6, own knowledge: UniProt P41212), containing the oligomerization domain; expressed in transfected cells; host or cells: murine hematopoietic cell line BaF/3 (BaF3 Tel/PDGF); the other entry of the earlier key: ETV6 (P41212, Transcription factor ETV6)
Description: Inhibition of PDGF beta receptor tyrosine kinase activity: proliferation of BaF3 Tel/PDGF cells. The class given is cell-based, murine. The following applies: 72 h incubation, viable cells by cellular ATP (CellTiter-Glo); read-out: IC50, concentration which inhibits 50% of the proliferation of the Baf3 tel/PDGF cells.
Text: as §1
Measurement of the inhibition of the PDGF beta receptor (PDGF-Rβ) tyrosine kinase activity (Baf-3 tel/PDGFRβ):
This test consists in evaluating the effects of the compounds on the PDGF beta receptor tyrosine kinase activity.
The inhibitory effect of the compounds according to the invention toward the PDGF-R receptor tyrosine kinase activity was evaluated on the hematopoietic murine cell line BaF/3 transfected with a plasmid encoding the fusion protein Tel/PDGF-R beta. This fusion protein is found in chronic myelomonocytic myeloid leukemias (CMML). It comprises the N-terminal part of the transcription factor Tel and the transmembrane and intracellular part of the PDGF-R beta receptor. This fusion protein is present in dimerized form (presence of an oligomerization domain in the N-terminal part of Tel) and therefore leads to the constitutive activity of the PDGF-R beta kinase domain. This BaF3 Tel/PDGF line has been described in the literature several times and in particular in detail in the article by CARROLL, M. et al., PNAS, 1996, 93, 14845-14850, CARROLL, M. et al., Blood 2002, 99, 14845-14850.
The BaF3 Tel/PDGF cells are washed with phosphate buffer and inoculated in 96-well plates, at the density of 5×10^4 cells/ml ([…]), in RPMI 1640 containing 10% FCS, in the presence or absence of the compounds to be tested. After 72 h of incubation, the viable cells are quantified by measuring the cellular ATP using the kit CellTiter-Glo®(Promega, Cat G7571). The cells are treated according to the instructions given by the kit supplier and the luminescence is measured with the aid of a Luminoskan (Ascent, Labsystem) with the following parameters: measurement: single; integration time: 1000 ms, lag time: 5 s.
It is thus apparent that the compounds according to the invention have an inhibitory activity on the PDGF-R beta tyrosine kinase activity. This activity is given by the concentration which inhibits 50% of the proliferation of the Baf3 tel/PDGF cells (IC50).
In general terms: ATP-based viability assays read luminescence as a measure of living cells.

T1 sequence (P23443 1-421 T412E): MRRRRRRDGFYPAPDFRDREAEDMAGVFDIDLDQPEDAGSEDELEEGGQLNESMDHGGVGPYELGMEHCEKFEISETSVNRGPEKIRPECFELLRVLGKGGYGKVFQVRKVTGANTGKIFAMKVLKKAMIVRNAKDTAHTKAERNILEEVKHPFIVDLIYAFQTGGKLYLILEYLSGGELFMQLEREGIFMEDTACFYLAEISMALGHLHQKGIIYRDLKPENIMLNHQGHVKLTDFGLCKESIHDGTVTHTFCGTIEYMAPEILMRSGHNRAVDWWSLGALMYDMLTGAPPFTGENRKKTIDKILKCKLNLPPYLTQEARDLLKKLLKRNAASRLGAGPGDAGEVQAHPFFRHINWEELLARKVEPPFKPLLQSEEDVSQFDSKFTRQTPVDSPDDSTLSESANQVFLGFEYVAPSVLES
T2 sequence (P09619 with tags, fused parts or gaps): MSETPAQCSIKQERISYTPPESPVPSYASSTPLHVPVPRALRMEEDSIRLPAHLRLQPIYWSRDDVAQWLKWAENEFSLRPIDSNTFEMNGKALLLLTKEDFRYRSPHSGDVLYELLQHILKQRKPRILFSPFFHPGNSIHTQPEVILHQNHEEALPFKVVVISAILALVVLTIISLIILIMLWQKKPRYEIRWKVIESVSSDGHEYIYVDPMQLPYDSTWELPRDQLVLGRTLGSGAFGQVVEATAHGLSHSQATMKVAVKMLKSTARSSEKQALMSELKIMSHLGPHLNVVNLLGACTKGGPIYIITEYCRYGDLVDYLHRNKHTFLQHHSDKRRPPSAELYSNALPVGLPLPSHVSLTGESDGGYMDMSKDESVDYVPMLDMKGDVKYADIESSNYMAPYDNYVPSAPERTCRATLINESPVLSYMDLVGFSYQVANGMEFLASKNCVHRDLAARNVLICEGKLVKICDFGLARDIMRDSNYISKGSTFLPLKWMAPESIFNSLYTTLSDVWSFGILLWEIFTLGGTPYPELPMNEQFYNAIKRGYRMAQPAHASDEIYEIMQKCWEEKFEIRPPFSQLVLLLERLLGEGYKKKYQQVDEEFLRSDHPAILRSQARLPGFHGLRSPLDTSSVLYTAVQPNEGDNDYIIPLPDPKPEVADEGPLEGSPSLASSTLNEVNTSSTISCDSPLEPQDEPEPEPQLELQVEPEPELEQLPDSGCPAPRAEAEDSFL

In general, melting point refers to the temperature, or range, at which the solid turns liquid. The compound `CCn1c(N)c(C(=O)NC)c(=O)c2ccc(-c3ccc(NS(=O)(=O)c4cccc(Cl)c4Cl)c(Cl)c3)nc21` [compound No. 8, 2-amino-7-(3-chloro-4-{[(2,3-dichlorophenyl)sulfonyl]amino}phenyl)-1-ethyl-N-methyl-4-oxo-1,4-dihydro-1,8-naphthyridine-3-carboxamide] had a melting point of 311 °C. Also, in data set [1], the IC50 came out at 412 nM.

Take `CCn1c(N)c(C(=O)NC)c(=O)c2ccc(-c3ccc(NS(=O)(=O)c4cc(Cl)ccc4Cl)c(F)c3)nc21` [compound No. 9, 2-amino-7-(4-{[(2,5-dichlorophenyl)sulfonyl]amino}-3-fluorophenyl)-1-ethyl-N-methyl-4-oxo-1,4-dihydro-1,8-naphthyridine-3-carboxamide]: the melting point was 230 °C. Besides, the IC50 in data set [1] amounted to 240 nM.

Compound `CCn1c(N)c(C(=O)NC)c(=O)c2ccc(-c3ccc(NS(=O)(=O)c4cccc(Cl)c4Cl)cc3F)nc21` [compound No. 14, 2-amino-7-(4-{[(2,3-dichlorophenyl)sulfonyl]amino}-2-fluorophenyl)-1-ethyl-N-methyl-4-oxo-1,4-dihydro-1,8-naphthyridine-3-carboxamide] yielded a melting point of 340 °C. Moreover, the IC50 in data set [1] is 224 nM.

`CCn1c(N)c(C(=O)NC)c(=O)c2ccc(-c3ccc(NS(=O)(=O)c4cccc(Cl)c4Cl)c(F)c3)nc21` [compound No. 18, 2-amino-7-(4-{[(2,3-dichlorophenyl)sulfonyl]amino}-3-fluorophenyl)-1-ethyl-N-methyl-4-oxo-1,4-dihydro-1,8-naphthyridine-3-carboxamide] registered a melting point of 333 °C. In addition, the IC50 in data set [2] was found to be 12 nM. The IC50 in data set [1] was 132 nM.

As to `CCn1c(N)c(C(=O)NC)c(=O)c2ccc(-c3ccc(NS(=O)(=O)c4ccc(F)cc4)c(F)c3)nc21` [compound No. 24, 2-amino-1-ethyl-7-(3-fluoro-4-{[(4-fluorophenyl)sulfonyl]amino}phenyl)-N-methyl-4-oxo-1,4-dihydro-1,8-naphthyridine-3-carboxamide], the melting point was more than 260 °C. Moreover, the IC50 in data set [2] turned out to be 24 nM.
